TGI and GI50 data for 8 molecules are collected here from PubChem BioAssay (NCI).

Test systems include NCI/ADR-RES ovarian; IGROV1 ovarian; HL-60(TB) leukemia; SK-OV-3 ovarian; NCI-H522 lung; K-562 leukemia; ACHN renal; CCRF-CEM leukemia; OVCAR-3 ovarian; HOP-62 NSCLC; HT29 colon; MDA-MB-435; SF-268 CNS; CAKI-1 renal; U251 CNS; HOP-92 NSCLC; T-47D breast.
Common to all, as to test: DTP human tumour cell line panel, 48 h

Where “and” joins values, the source holds several entries; their conditions need not be identical. Equal entries are not always repeated.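 All cell lines were grown in 96-well plates and treated with compound for 48 hours. Here, GI50 denotes the concentration required for 50% inhibition of growth. TGI marks complete inhibition of growth.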

`O=C1C(Cl)=CC2(C=C1Cl)CCN=c1c(O)c3c(c(O)c12)=NC=N3`: the total growth inhibition concentration (TGI) is greater than 100 µM in the assay on NCI/ADR-RES ovarian; greater than 100 µM in the assay on IGROV1 ovarian; 53.6 µM in the assay on HL-60(TB) leukemia; greater than 100 µM in the assay with SK-OV-3 ovarian; 51.8 µM in the assay with NCI-H522 lung; greater than 100 µM with K-562 leukemia. Besides, the concentration for total growth inhibition (TGI) is greater than 100 µM with ACHN renal; greater than 100 µM with CCRF-CEM leukemia; 89.1 µM with OVCAR-3 ovarian; greater than 100 µM in the assay with HOP-62 NSCLC; 71.8 µM in the assay on HT29 colon; 32.7 µM in the assay on MDA-MB-435. Also, the total growth inhibition concentration (TGI) in the assay with SF-268 CNS was greater than 100 µM; with CAKI-1 renal it was greater than 100 µM; with U251 CNS it was 71.9 µM; in the assay on HOP-92 NSCLC it was greater than 100 µM; in the assay with T-47D breast, greater than 100 µM.

In the case of `COc1ccc(OC/C(N)=N/NC(=O)c2ccncc2)cc1`, the concentration for total growth inhibition (TGI) in the assay with NCI/ADR-RES ovarian, in the assay on IGROV1 ovarian, with HL-60(TB) leukemia, in the assay on SK-OV-3 ovarian, with NCI-H522 lung and in the assay with K-562 leukemia was greater than 100 µM each time. For the same molecule, the TGI in the assay with ACHN renal, in the assay with CCRF-CEM leukemia, with OVCAR-3 ovarian, in the assay on HOP-62 NSCLC, with HT29 colon and in the assay on MDA-MB-435 was greater than 100 µM each time. For the same molecule, the TGI with SF-268 CNS, in the assay with CAKI-1 renal, with U251 CNS, with HOP-92 NSCLC and in the assay with T-47D breast was greater than 100 µM each time.

Take `O=C(/C=C/c1ccccc1)CCN1CCCCC1`: the concentration for total growth inhibition (TGI) is greater than 100 µM in the assay with NCI/ADR-RES ovarian; greater than 100 µM with IGROV1 ovarian; greater than 100 µM in the assay with HL-60(TB) leukemia; greater than 100 µM with SK-OV-3 ovarian; 47.4 µM with NCI-H522 lung; greater than 100 µM in the assay on K-562 leukemia. The concentration for total growth inhibition (TGI) with ACHN renal is greater than 100 µM; with CCRF-CEM leukemia, greater than 100 µM; with OVCAR-3 ovarian, greater than 100 µM; in the assay with HOP-62 NSCLC, greater than 100 µM; with HT29 colon it was 43.3 µM; in the assay on MDA-MB-435 it was 84.4 µM. Moreover, the TGI was greater than 100 µM with SF-268 CNS; greater than 100 µM with CAKI-1 renal; 65.6 µM in the assay on U251 CNS; greater than 100 µM in the assay with HOP-92 NSCLC; greater than 100 µM in the assay on T-47D breast.

In the case of `N/C(CCSCCSCC/C(N)=N\O)=N\O`, the TGI with NCI/ADR-RES ovarian, with IGROV1 ovarian, in the assay on HL-60(TB) leukemia, with SK-OV-3 ovarian, with NCI-H522 lung and in the assay with K-562 leukemia was greater than 100 µM throughout. Further, the TGI in the assay with ACHN renal, with CCRF-CEM leukemia, in the assay on OVCAR-3 ovarian, in the assay on HOP-62 NSCLC, in the assay on HT29 colon and in the assay with MDA-MB-435 was greater than 100 µM each time. For the same molecule, the TGI with SF-268 CNS, in the assay with CAKI-1 renal, with U251 CNS, in the assay on HOP-92 NSCLC and with T-47D breast was greater than 100 µM each time.

Consider `Cc1cnc2[nH]c(-c3cccc4ccccc34)cc(=O)c2c1`, for which the TGI is greater than 100 µM in the assay on NCI/ADR-RES ovarian; 43.5 µM with IGROV1 ovarian; 0.000577 µM in the assay on HL-60(TB) leukemia; 0.0952 µM in the assay with SK-OV-3 ovarian; 0.00072 µM in the assay with NCI-H522 lung; greater than 100 µM in the assay on K-562 leukemia. For the same molecule, the TGI with ACHN renal is 64.6 µM; with CCRF-CEM leukemia it was greater than 100 µM; with HOP-62 NSCLC, greater than 100 µM; with HT29 colon it was 0.0121 µM and 0.0273 µM; with MDA-MB-435, 0.000499 µM; in the assay with SF-268 CNS it was greater than 100 µM. The concentration for total growth inhibition (TGI) was greater than 100 µM with CAKI-1 renal, 0.0129 µM with U251 CNS, 33.5 µM in the assay with HOP-92 NSCLC and greater than 100 µM in the assay with T-47D breast. The GI50 in the assay on HOP-62 NSCLC was 0.127 µM; in the assay on SF-268 CNS, 6.51 µM; with HOP-92 NSCLC, 0.0464 µM.

As to `O=[N+]([O-])c1ccc2c3c1[C@@H]1O[C@@H]1c1cccc(c1-3)[C@@H]1O[C@H]21`, the concentration for total growth inhibition (TGI) was greater than 38.5 µM in the assay on NCI/ADR-RES ovarian; 2.72 µM with IGROV1 ovarian; 7.58 µM with HL-60(TB) leukemia; 44.3 µM in the assay on SK-OV-3 ovarian; 3.33 µM with NCI-H522 lung; greater than 100 µM with K-562 leukemia. Moreover, the TGI with CCRF-CEM leukemia came out at 8.17 µM; with OVCAR-3 ovarian, 10.9 µM; in the assay on HOP-62 NSCLC, 34.4 µM; in the assay with HT29 colon it was 14.7 µM; in the assay on MDA-MB-435 it was 5.22 µM; in the assay on SF-268 CNS, 10.6 µM. In addition, the TGI with CAKI-1 renal was 3.2 µM; in the assay with U251 CNS, 11.8 µM; in the assay with HOP-92 NSCLC, 28.6 µM; in the assay on T-47D breast it was 12 µM.

In the case of `COC(=O)C(=O)C(C(=O)C(=O)Nc1cccc(OC)c1)c1nc2ccc(Cl)cc2[nH]c1=O` (stereo not given), the TGI in the assay on NCI/ADR-RES ovarian, with IGROV1 ovarian, in the assay with HL-60(TB) leukemia, in the assay on SK-OV-3 ovarian, in the assay with NCI-H522 lung and in the assay on K-562 leukemia was greater than 100 µM in each case. In addition, the TGI in the assay on ACHN renal, with CCRF-CEM leukemia, in the assay on OVCAR-3 ovarian, in the assay on HT29 colon, with MDA-MB-435 and in the assay on SF-268 CNS was greater than 100 µM each time. The concentration for total growth inhibition (TGI) in the assay on CAKI-1 renal, in the assay with U251 CNS, in the assay on HOP-92 NSCLC and in the assay with T-47D breast was greater than 100 µM each time.

Take `O=C1CSC(c2cc3cc(Br)ccc3nc2Cl)N1c1ccc(Cl)cc1` (stereo not given): the concentration for total growth inhibition (TGI) in the assay on NCI/ADR-RES ovarian is 75.3 µM; with IGROV1 ovarian, greater than 100 µM; with HL-60(TB) leukemia it was 55.7 µM; with SK-OV-3 ovarian it was greater than 100 µM; with NCI-H522 lung it was 57.3 µM; with K-562 leukemia, greater than 100 µM. Further, the concentration for total growth inhibition (TGI) was greater than 100 µM in the assay with ACHN renal; 97.6 µM in the assay on CCRF-CEM leukemia; 41.3 µM in the assay on OVCAR-3 ovarian; greater than 100 µM in the assay with HOP-62 NSCLC; greater than 100 µM with HT29 colon; 49.5 µM in the assay on MDA-MB-435. For the same molecule, the concentration for total growth inhibition (TGI) with SF-268 CNS, in the assay with CAKI-1 renal, with HOP-92 NSCLC and with T-47D breast was greater than 100 µM each time.

One may read the TGI as the concentration at which net growth stops. As usually defined, the GI50 is the concentration at which growth is held to half of that of the control.
